Assay results taken from patent US5145855A, “6- and 7-deoxyforskolin and derivatives thereof” (Hoechst Roussel Pharmaceuticals, Inc., priority 1991, dated 1992).
In brackets after ≈: the same amount, converted by molar mass.

Tested on: isolated guinea pig left atrium
Experiment: electrically-driven guinea pig left atrium contractile force assay (positive inotropic effect)
Conditions: for Ionotropic Activity (% Change of Contractile Force): at the concentration of the same line (extrapolated ED50: A 0.04, B 0.073 μg/ml)
Method: The forskolin derivatives of the present invention are useful in the treatment of cardiac failure by virtue of their ability to elicit a positive inotropic effect as determined in the isolated guinea pig atria contractile force assay. The electrically-driven guinea pig left atrium assay is performed as follows: Male guinea pigs weighing 200-300 grams are stunned with a blow to the back of the head. The heart is rapidly removed and placed in a petri dish containing Krebs solution. The ventricle is separated from the atria, the atria are sectioned in the right and left atria, and double-O silk ligatures are tied to the apex of the left atrium. The atrium is fixed to a pair of platinum plate electrodes and suspended in a 20-ml tissue bath containing Kreb's solution aerated with 95% oxygen-5% carbon dioxide at 37° C. One end of the atrium is fixed to a hook in the electrode and the other end is connected to a Grass FTO3 force displacement transducer. Resting tension and stabilization time are the same as described above. The atrium is stimulated at 3 Hz, 0.5 msec duration at supramaximal voltage (constant current) via a Grass S88 stimulator and constant current unit. Force of contraction is continuously displaced on a Gould recorder. Test drug is prepared and is added to the tissue baths. Change in contractile force from baseline is determined for each concentration, and the change in contractile force (g) is plotted against accumulated drug concentration (μg/ml) The activity of the test drug, i.e., the increase in contractile force (g) from the stabilized force expressed as the percentage change at a given concentration is determined graphically, as is the ED50 -value, i.e., the extrapolated dose (μg/ml) which increases the contractile force by 50% over the stabilized rate.

Row | EC50 (Cavia porcellus, isolated left atrium, stimulated at 3 Hz, 37° C., Krebs solution, read-out: Extrapolated ED50 value (concentration which increases the contractile force by 50%)) [µg/mL] | Compound | Ionotropic Activity (% Change of Contractile Force) [%] | Extrapolated ED50 value (concentration which increases the contractile force by 50%) (isolated left atrium, stimulated at 3 Hz, 37° C., Krebs solution) [µg/mL]
1 | – | C=CC1(C)CC(=O)C2(O)C(C)(O1)C(Oc1ncccn1)CC1C(C)(C)CCC(O)C12C.Cl (stereo not shown) [A, 6-Deoxy-7-desacetyl-7-(pyrimidin-2-yl)forskolin hydrochloride] | 50 | 0.04
2 | 0.073 (≈ 0.178 µM) | C=C[C@@]1(C)CC(=O)[C@]2(O)[C@@]3(C)[C@@H](O)CCC(C)(C)[C@@H]3[C@H](O)[C@H](OC(C)=O)[C@@]2(C)O1 [B, Forskolin] | 50 | –
